From US11464782B2, “Method of treating pain or interstitial cystitis using indole compound” (Japan Tobacco Inc., priority 2018, dated 2022)
Structures can show the parent of a compound that is named as a salt.

Columns and labels:
[1] = test system: NGF-induced thermal hyperalgesia; experiment: NGF-induced thermal hyperalgesia in rats (plantar test, paw withdrawal latency); format: in vivo, rat
Description: In order to induce a pain-related behavior (withdrawal behavior), NGF was injected into the plantar area of the left hind paw of rats and the thermal latencies/mechanical thresholds were measured. The effects of Compound A on these withdrawal behaviors were investigated. At 2 days before the injection of NGF, the thermal latencies or mechanical thresholds were measured for acclimation to the experimental environment. On the day before injection of NGF, body weights and values of the thermal latencies or mechanical thresholds were obtained. 50 μL of NGF solution was injected intraplantar to left hind paw of rats. 0.5 μg/site of NGF was selected in the evaluation of thermal stimuli and 1 μg/site was selected in that of mechanical stimuli. A monohydrochloride of Compound A (1, 3, or 10 mg/kg) was administered orally at the same time as the NGF injection. The latencies to thermal stimuli were measured at 3 and 6 hours after injection of NGF solution, and the thresholds to mechanical stimuli were measured at 1, 3 and 6 hours after injection of NGF solution. The evaluation was performed as a blind test of each group. The thermal latency was measured using a plantar test apparatus. An infrared heat stimuli was delivered to the plantar area of the hind paw and the time to withdraw the paw from the heat source was recorded automatically as the thermal latency. The measurement was performed 5 times for both hind paws of each animal, the averages of the last 3 values in each hind paw were accounted as the thermal latencies of each animal. The measurement for acclimation was performed only 3 times.

[2] = test system: NGF-induced mechanical hyperalgesia; experiment: NGF-induced mechanical hyperalgesia in rats (pressure analgesy-meter, paw withdrawal threshold); format: in vivo, rat
Description: In order to induce a pain-related behavior (withdrawal behavior), NGF was injected into the plantar area of the left hind paw of rats and the thermal latencies/mechanical thresholds were measured. The effects of Compound A on these withdrawal behaviors were investigated. At 2 days before the injection of NGF, the thermal latencies or mechanical thresholds were measured for acclimation to the experimental environment. On the day before injection of NGF, body weights and values of the thermal latencies or mechanical thresholds were obtained. 50 μL of NGF solution was injected intraplantar to left hind paw of rats. 0.5 μg/site of NGF was selected in the evaluation of thermal stimuli and 1 μg/site was selected in that of mechanical stimuli. A monohydrochloride of Compound A (1, 3, or 10 mg/kg) was administered orally at the same time as the NGF injection. The latencies to thermal stimuli were measured at 3 and 6 hours after injection of NGF solution, and the thresholds to mechanical stimuli were measured at 1, 3 and 6 hours after injection of NGF solution. The evaluation was performed as a blind test of each group. The mechanical threshold was measured using a pressure analgesy-meter. A mechanical stimulus (pressure) increased at a constant rate was added to the hind paw, and the pressure under load until animals withdrew its hind paw or vocalization was recorded as the mechanical threshold (mmHg).

[3] = 1 mg/kg oral, right hind paw (uninjected side), 3 hr
[4] = 1 mg/kg oral, right hind paw (uninjected side), 6 hr
[5] = 1 mg/kg oral, right hind paw (uninjected side), pre
[6] = 3 mg/kg oral, right hind paw (uninjected side), 3 hr
[7] = 3 mg/kg oral, right hind paw (uninjected side), 6 hr
[8] = 3 mg/kg oral, right hind paw (uninjected side), pre
[9] = 10 mg/kg oral, right hind paw (uninjected side), 3 hr
[10] = 10 mg/kg oral, right hind paw (uninjected side), 6 hr
[11] = 10 mg/kg oral, right hind paw (uninjected side), pre

C[C@@H](C(=O)N(C)c1ccc2cc(-c3n[nH]c4c3CCC(C)(C)C4)[nH]c2c1)N1CCOCC1 [Compound A•HCl]
Paw Withdrawal Latency ([1]; 1 mg/kg oral, left hind paw (injected side, NGF 0.5 μg/site), 3 hr): 10.0 ± 2.6 s | Paw Withdrawal Latency ([1]; 1 mg/kg oral, left hind paw (injected side, NGF 0.5 μg/site), 6 hr): 8.7 ± 2.0 s | Paw Withdrawal Latency ([1]; 1 mg/kg oral, left hind paw (injected side, NGF 0.5 μg/site), pre): 11.4 ± 1.2 s | Paw Withdrawal Latency [1, 3]: 10.9 ± 1.4 s | Paw Withdrawal Latency [1, 4]: 10.8 ± 2.4 s | Paw Withdrawal Latency [1, 5]: 11.6 ± 1.1 s | Paw Withdrawal Latency ([1]; 3 mg/kg oral, left hind paw (injected side, NGF 0.5 μg/site), 3 hr): 10.3 ± 1.6 s | Paw Withdrawal Latency ([1]; 3 mg/kg oral, left hind paw (injected side, NGF 0.5 μg/site), 6 hr): 9.9 ± 1.5 s | Paw Withdrawal Latency ([1]; 3 mg/kg oral, left hind paw (injected side, NGF 0.5 μg/site), pre): 11.2 ± 1.9 s | Paw Withdrawal Latency [1, 6]: 12.3 ± 2.2 s | Paw Withdrawal Latency [1, 7]: 11.9 ± 1.9 s | Paw Withdrawal Latency [1, 8]: 11.6 ± 1.5 s | Paw Withdrawal Latency ([1]; 10 mg/kg oral, left hind paw (injected side, NGF 0.5 μg/site), 3 hr): 11.6 ± 2.4 s | Paw Withdrawal Latency ([1]; 10 mg/kg oral, left hind paw (injected side, NGF 0.5 μg/site), 6 hr): 11.3 ± 1.4 s | Paw Withdrawal Latency ([1]; 10 mg/kg oral, left hind paw (injected side, NGF 0.5 μg/site), pre): 12.0 ± 1.1 s | Paw Withdrawal Latency [1, 9]: 11.9 ± 2.7 s | Paw Withdrawal Latency [1, 10]: 11.5 ± 1.2 s | Paw Withdrawal Latency [1, 11]: 11.9 ± 1.2 s | Paw Withdrawal Threshold (mmHg) ([2]; 1 mg/kg oral, left hind paw (injected side, NGF 1 μg/site), 1 hr): 107 ± 17 mmHg | Paw Withdrawal Threshold (mmHg) ([2]; 1 mg/kg oral, left hind paw (injected side, NGF 1 μg/site), 3 hr): 104 ± 20 mmHg | Paw Withdrawal Threshold (mmHg) ([2]; 1 mg/kg oral, left hind paw (injected side, NGF 1 μg/site), 6 hr): 90 ± 11 mmHg | Paw Withdrawal Threshold (mmHg) ([2]; 1 mg/kg oral, left hind paw (injected side, NGF 1 μg/site), Pre): 126 ± 21 mmHg | Paw Withdrawal Threshold (mmHg) ([2]; 1 mg/kg oral, right hind paw (uninjected side), 1 hr): 134 ± 16 mmHg | Paw Withdrawal Threshold (mmHg) [2, 3]: 135 ± 21 mmHg | Paw Withdrawal Threshold (mmHg) [2, 4]: 133 ± 9 mmHg | Paw Withdrawal Threshold (mmHg) [2, 5]: 132 ± 15 mmHg | Paw Withdrawal Threshold (mmHg) ([2]; 3 mg/kg oral, left hind paw (injected side, NGF 1 μg/site), 1 hr): 118 ± 17 mmHg | Paw Withdrawal Threshold (mmHg) ([2]; 3 mg/kg oral, left hind paw (injected side, NGF 1 μg/site), 3 hr): 121 ± 21 mmHg | Paw Withdrawal Threshold (mmHg) ([2]; 3 mg/kg oral, left hind paw (injected side, NGF 1 μg/site), 6 hr): 106 ± 11 mmHg | Paw Withdrawal Threshold (mmHg) ([2]; 3 mg/kg oral, left hind paw (injected side, NGF 1 μg/site), Pre): 152 ± 26 mmHg | Paw Withdrawal Threshold (mmHg) ([2]; 3 mg/kg oral, right hind paw (uninjected side), 1 hr): 133 ± 19 mmHg | Paw Withdrawal Threshold (mmHg) [2, 6]: 141 ± 10 mmHg | Paw Withdrawal Threshold (mmHg) [2, 7]: 144 ± 23 mmHg | Paw Withdrawal Threshold (mmHg) [2, 8]: 148 ± 25 mmHg | Paw Withdrawal Threshold (mmHg) ([2]; 10 mg/kg oral, left hind paw (injected side, NGF 1 μg/site), 1 hr): 130 ± 20 mmHg | Paw Withdrawal Threshold (mmHg) ([2]; 10 mg/kg oral, left hind paw (injected side, NGF 1 μg/site), 3 hr): 134 ± 22 mmHg | Paw Withdrawal Threshold (mmHg) ([2]; 10 mg/kg oral, left hind paw (injected side, NGF 1 μg/site), 6 hr): 130 ± 18 mmHg | Paw Withdrawal Threshold (mmHg) ([2]; 10 mg/kg oral, left hind paw (injected side, NGF 1 μg/site), Pre): 136 ± 17 mmHg | Paw Withdrawal Threshold (mmHg) ([2]; 10 mg/kg oral, right hind paw (uninjected side), 1 hr): 144 ± 14 mmHg | Paw Withdrawal Threshold (mmHg) [2, 9]: 139 ± 17 mmHg | Paw Withdrawal Threshold (mmHg) [2, 10]: 139 ± 13 mmHg | Paw Withdrawal Threshold (mmHg) [2, 11]: 139 ± 17 mmHg
